Data: patent US10167272B2, “Muscarinic agonists” (Heptares Therapeutics Limited, priority 2015, dated 2019)
Like-named read-outs stand apart in the source and are kept apart here.

What was measured:
Format in all cases: cell-based
[1] = biological target: T1, human muscarinic M4 receptor (Homo sapiens, UniProt P08173); assay: Alphascreen Surefire phospho-ERK1/2 functional assay, M4; details: for Emax: CHO, read-out: % Emax cf. ACh (M4), CHO cells stably expressing human M4
T1 construct: expressed in transfected cells
T1 sequence (P08173 1-479): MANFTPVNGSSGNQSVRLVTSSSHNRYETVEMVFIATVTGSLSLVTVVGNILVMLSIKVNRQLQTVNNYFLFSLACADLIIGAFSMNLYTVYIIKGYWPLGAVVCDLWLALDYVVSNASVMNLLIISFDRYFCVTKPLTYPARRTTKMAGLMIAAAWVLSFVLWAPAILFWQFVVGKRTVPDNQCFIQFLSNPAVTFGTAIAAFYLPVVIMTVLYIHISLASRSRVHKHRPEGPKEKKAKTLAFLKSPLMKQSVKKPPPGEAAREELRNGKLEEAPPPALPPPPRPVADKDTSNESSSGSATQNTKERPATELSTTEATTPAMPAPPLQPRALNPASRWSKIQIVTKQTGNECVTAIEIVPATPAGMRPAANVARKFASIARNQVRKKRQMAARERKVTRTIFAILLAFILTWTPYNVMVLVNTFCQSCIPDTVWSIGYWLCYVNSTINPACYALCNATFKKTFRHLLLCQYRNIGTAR

[2] = biological target: T2, human muscarinic M2 receptor (Homo sapiens, UniProt P08172); assay: Alphascreen Surefire phospho-ERK1/2 functional assay, M2; details: for EC50: CHO cells stably expressing human M2, read-out: pEC50 M2 (converted); for Emax: CHO, read-out: % Emax cf. ACh (M2), CHO cells stably expressing human M2, relative to ACh
T2 sequence (P08172 1-466): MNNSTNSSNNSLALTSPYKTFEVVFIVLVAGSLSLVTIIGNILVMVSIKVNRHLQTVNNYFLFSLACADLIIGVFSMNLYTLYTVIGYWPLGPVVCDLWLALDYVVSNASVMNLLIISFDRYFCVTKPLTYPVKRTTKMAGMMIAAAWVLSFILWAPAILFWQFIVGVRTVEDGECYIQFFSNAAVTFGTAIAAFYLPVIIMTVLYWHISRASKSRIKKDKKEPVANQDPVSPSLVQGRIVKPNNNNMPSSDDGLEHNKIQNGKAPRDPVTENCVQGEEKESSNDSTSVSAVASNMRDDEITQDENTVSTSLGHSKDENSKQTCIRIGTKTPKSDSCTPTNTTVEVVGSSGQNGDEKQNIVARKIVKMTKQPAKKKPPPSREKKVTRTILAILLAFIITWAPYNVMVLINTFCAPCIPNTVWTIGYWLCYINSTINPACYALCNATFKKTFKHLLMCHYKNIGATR
Description: (§1) ERK1/2 phosphorylation is a downstream consequence of both Gq/11 and Gi/o protein coupled receptor activation, making it highly suitable for the assessment of M1, M3 (Gq/11 coupled) and M2, M4 receptors (Gi/o coupled), rather than using different assay formats for different receptor subtypes. CHO cells stably expressing the human muscarinic M1, M2, M3 or M4 receptor were plated (25K/well) onto 96-well tissue culture plates in MEM-alpha+10% dialysed FBS. Once adhered, cells were serum-starved overnight. Agonist stimulation was performed by the addition of 5 μL agonist to the cells for 5 min (37° C.). Media was removed and 50 μL of lysis buffer added. After 15 min, a 4 μL sample was transferred to 384-well plate and 7 μL of detection mixture added.

[3] = biological target: T3, human muscarinic M1 receptor (Homo sapiens, UniProt P11229); assay: Alphascreen Surefire phospho-ERK1/2 functional assay, M1; details: phospho-ERK1/2; for EC50: read-out: pEC50 M1 (converted); for Emax: CHO, read-out: % Emax cf. ACh (M1), CHO cells stably expressing human M1
T3 sequence (P11229 1-460): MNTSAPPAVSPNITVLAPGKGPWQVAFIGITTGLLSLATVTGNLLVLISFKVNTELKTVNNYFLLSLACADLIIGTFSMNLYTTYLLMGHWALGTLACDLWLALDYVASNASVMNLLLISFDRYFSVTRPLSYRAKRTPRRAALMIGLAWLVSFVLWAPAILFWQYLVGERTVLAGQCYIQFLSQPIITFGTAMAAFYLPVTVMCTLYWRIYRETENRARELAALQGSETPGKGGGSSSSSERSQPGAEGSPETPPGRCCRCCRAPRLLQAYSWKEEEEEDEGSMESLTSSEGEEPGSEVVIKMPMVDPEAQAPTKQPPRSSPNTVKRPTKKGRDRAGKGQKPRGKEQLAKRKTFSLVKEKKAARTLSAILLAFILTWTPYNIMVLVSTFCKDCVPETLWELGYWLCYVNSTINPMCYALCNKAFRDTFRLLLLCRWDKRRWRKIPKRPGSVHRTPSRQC
Description: as §1

[4] = biological target: T4, human muscarinic M3 receptor (Homo sapiens, UniProt P20309); assay: Alphascreen Surefire phospho-ERK1/2 functional assay, M3; details: phospho-ERK1/2; for EC50: CHO cells stably expressing human M3, read-out: pEC50 M3 (converted); for Emax: CHO, read-out: % Emax cf. ACh (M3), CHO cells stably expressing human M3, relative to ACh
T4 construct: expressed in transfected cells
Description: as §1

[5] = CHO cells stably expressing human M4, phospho-ERK1/2, read-out: pEC50 M4 (converted)
[6] = CHO cells stably expressing human M1
[7] = phospho-ERK1/2, relative to ACh

T4 sequence (P20309 whole entry): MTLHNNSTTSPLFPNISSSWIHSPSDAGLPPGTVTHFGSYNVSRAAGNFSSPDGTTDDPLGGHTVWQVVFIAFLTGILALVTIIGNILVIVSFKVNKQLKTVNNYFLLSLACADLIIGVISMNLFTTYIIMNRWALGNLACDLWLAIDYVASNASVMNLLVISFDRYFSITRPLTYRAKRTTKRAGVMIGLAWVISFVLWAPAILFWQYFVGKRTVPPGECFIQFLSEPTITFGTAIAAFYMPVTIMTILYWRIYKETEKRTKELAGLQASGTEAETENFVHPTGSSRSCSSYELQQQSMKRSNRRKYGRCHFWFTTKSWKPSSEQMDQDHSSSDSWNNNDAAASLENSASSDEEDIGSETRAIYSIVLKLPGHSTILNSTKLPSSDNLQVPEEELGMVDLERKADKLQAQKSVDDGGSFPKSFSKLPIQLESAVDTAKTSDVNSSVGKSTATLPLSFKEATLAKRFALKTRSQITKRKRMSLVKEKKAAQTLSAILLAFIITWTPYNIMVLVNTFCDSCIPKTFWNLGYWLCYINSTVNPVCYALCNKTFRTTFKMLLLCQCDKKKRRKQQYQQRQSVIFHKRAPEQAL

| Structure (SMILES) | EC50 [1, 5] [nM] | % Emax cf. ACh (M4) ([1]; CHO cells stably expressing human M4, phospho-ERK1/2, relative to ACh) [%] | EC50 [2] [nM] | Emax [2] [%] | EC50 [3, 6] [nM] | % Emax cf. ACh (M1) ([3]; CHO cells stably expressing human M1, relative to ACh) [%] | EC50 [4] [nM] | Emax [4] [%] | Emax [1, 7] [%] | Emax ([3]; relative to ACh) [%] | EC50 ([1]; pEC50 M4) [nM] |
| --- | --- | --- | --- | --- | --- | --- | --- | --- | --- | --- | --- |
| CCOC(=O)N1CCC2(CC(N3CCC(N(CC4(OC)CCC4)C(C)=O)CC3)C2)C1 (single isomer, unassigned) [2-30 Isomer 2] | 79.4 | 96 | 5010 | 42 | 100 | 104 | > 20000 | 26 |  |  |  |
| CCOC(=O)N1CCC2(CC(N3CCC(N(OC)C(C)=O)CC3)C2)C1 (single isomer, unassigned) [2-32 Isomer 2] | 39.8 |  | > 20000 | 9 | 2510 |  | > 20000 | 5 | 115 | 82 |  |
| CCOC(=O)N1CCC2(CC(N3CCC(N(Cc4ccccc4)C(C)=O)CC3)C2)C1 (single isomer, unassigned) [2-35 Isomer 2] | 126 |  | > 20000 | 21 | 39.8 |  | > 20000 | 34 | 72 | 85 |  |
| [2H]C([2H])(C)OC(=O)N1CCC2(CC(N3CCC(N(CC)C(C)=O)CC3)C2)C1 (single isomer, unassigned) [2-38 Isomer 2] | 20 |  | > 20000 | 21 | 631 |  | > 20000 | 1 | 115 | 76 |  |
| CCOC(=O)N1CCC2(CC(N3CCC(N(CC)C(=O)OC)CC3)C2)C1 (single isomer, unassigned) [2-39 Isomer 2] | 25.1 |  | > 20000 | 12 | 316 |  | > 20000 | 25 | 126 | 39 |  |
| CCOC(=O)N1CCC2(CC(N3CCC(N(CC)C(=O)OCC)CC3)C2)C1 (single isomer, unassigned) [2-40 Isomer 2] | 63.1 |  | > 20000 | 32 | 501 |  | > 20000 | 9 | 110 | 39 |  |
| CCOC(=O)N1CCC2(CC(N3CCC(N(C(=O)OC)C(C)C)CC3)C2)C1 (single isomer, unassigned) [2-41 Isomer 2] | 15.8 |  | > 20000 | 57 | 316 |  | > 20000 | 1 | 127 | 109 |  |
| CCOC(=O)N1CCC2(CC(N3CCC(N(CC(F)(F)F)C(=O)OC)CC3)C2)C1 (single isomer, unassigned) [2-42 Isomer 2] | 100 |  | > 20000 | 21 | 1580 |  | > 20000 | 39 | 112 | 120 |  |
| CCOC(=O)N1CCC2(CC(N3CCC(N(CC)CCF)CC3)C2)C1 (single isomer, unassigned) [2-45 Isomer 2] |  |  | > 20000 | 9 | 631 |  | > 20000 | 16 | 45 | 30 | 63.1 |
| CCOC(=O)N1CCC2(CC(N3CCC(N(CC)CC(F)F)CC3)C2)C1 (single isomer, unassigned) [2-46 Isomer 2] |  |  | > 20000 | 5 | 316 |  | > 20000 | 12 | 98 | 63 | 7.94 |
| CCOC(=O)N1CCC2(CC(N3CCC(N(C(=O)OC)C4COC4)CC3)C2)C1 (single isomer, unassigned) [2-47 Isomer 2] | 63.1 |  | 501 | 29 | 398 |  | 1260 | 63 | 90 | 113 |  |

Now from value to compound, other results behind:

| EC50 [1, 5] [nM] | % Emax cf. ACh (M4) ([1]; CHO cells stably expressing human M4, phospho-ERK1/2, relative to ACh) [%] | EC50 [2] [nM] | Emax [2] [%] | EC50 [3, 6] [nM] | % Emax cf. ACh (M1) ([3]; CHO cells stably expressing human M1, relative to ACh) [%] | EC50 [4] [nM] | Emax [4] [%] | Emax [1, 7] [%] | Emax ([3]; relative to ACh) [%] | Structure (SMILES) | EC50 ([1]; pEC50 M4) [nM] |
| --- | --- | --- | --- | --- | --- | --- | --- | --- | --- | --- | --- |
| 39.8 |  | 12600 | 68 | 39.8 |  | 7940 | 53 | 75 | 117 | CCOC(=O)N1CCC2(CC(N3CCC(N(CC(F)(F)F)C4CC4)CC3)C2)C1 (single isomer, unassigned) [2-48 Isomer 2] |  |
| 20 |  | > 20000 | 18 | 316 |  | > 20000 | 22 | 89 | 84 | CCOC(=O)N1CCC2(CC(N3CCC(N(CCO)CC(F)(F)F)CC3)C2)C1 (single isomer, unassigned) [2-51 Isomer 2] |  |
| 25.1 |  | > 20000 | 7 | 398 |  | > 20000 | 7 | 106 | 93 | CCOC(=O)N1CCC2(CC(N3CCC(N(CCOC)CC(F)(F)F)CC3)C2)C1 (single isomer, unassigned) [2-52 Isomer 2] |  |
| 31.6 |  | > 20000 | 28 | 251 |  | > 20000 | 20 | 98 | 106 | CCOC(=O)N1CCC2(CC(N3CCC(N(CC(F)(F)F)C4COC4)CC3)C2)C1 (single isomer, unassigned) [2-54 Isomer 2] |  |
| 25.1 |  | > 20000 | 15 | > 20000 |  | > 20000 | 5 | 65 | 161 | CCOC(=O)N1CCC2(CC(N3CCC(N(CC)CCC#N)CC3)C2)C1 (single isomer, unassigned) [2-55 Isomer 2] |  |
| 39.8 |  | > 20000 | 11 | 1000 |  | > 20000 | 23 | 107 | 40 | CCOC(=O)N1CCC2(CC(N3CCC(N(CC)OC)CC3)C2)C1 (single isomer, unassigned) [2-57 Isomer 2] |  |
| 79.4 |  | > 20000 | 9 | > 20000 |  | > 20000 | 14 | 52 | 9 | CCOC(=O)N1CCC2(CC(N3CCC(N(Cc4ccccc4)CC(F)(F)F)CC3)C2)C1 (single isomer, unassigned) [2-59 Isomer 2] |  |
| 63.1 |  | > 20000 | 20 | > 20000 |  | > 20000 | 56 | 111 | 62 | CCOC(=O)N1CCC2(CC(N3CCC(N(CC)Cc4cnco4)CC3)C2)C1 (single isomer, unassigned) [2-60 Isomer 2] |  |
